# How the values were obtained:
# [1] = tested on: sterile-filtered fecal exoenzyme fraction; experiment: Xenobiotic depletion in the sterile-filtered fecal exoenzyme fraction; format: in vitro ADME, human; conditions: anaerobic, 24 h
# Protocol: (§1) To further purify the extracellular enzyme (exoenzyme) fraction, the supernatant was centrifuged at 18,000 × g for 3 min at 4 °C. The resulting preparation was then sterile-filtered three times through 0.22-µm syringe filters to ensure complete removal of remaining microbial cells. The sterile exoenzyme fraction was stored anaerobically at −70 °C until further use. The middle layer, which contained the gut bacteria, was collected and referred to as the bacterial colon model. The isolated microbiota was then diluted in sterile 50% (v/v) glycerol and stored at −70 °C under anaerobic conditions.
# (§2) To enable parameter-based comparison of compound conversion across incubation matrices, apparent first-order kinetic parameters were calculated from precursor compound depletion data. Only quantifiable time points were considered. Because these values represent apparent kinetic estimates derived from a limited number of sampling points, they were interpreted primarily for comparative purposes. Detailed experimental conditions and analytical parameters are provided in Supplementary Tab. S2.
# (§3) To evaluate the metabolic capabilities of the human colon model presented here, a panel of structurally diverse xenobiotics was selected based on microbial biotransformation reactions reported in the literature (Fig. 7, Supplementary Fig. S2). […] Together, these reference substrates served as model compounds covering major gut microbial transformation chemistries, enabling a matrix-to-matrix performance evaluation of the colon model. […] Product levels were estimated using the nitrendipine calibration and are therefore semi-quantitative.
# (§4) Table S1: Composition of the modified SHIME®-based regeneration media.
# (§5) To evaluate microbial xenobiotic metabolism under defined conditions, incubations were conducted using model substrates representing major biotransformation classes: 4- […]
# (§6) reduction), and nitrendipine (nitro group reduction). Reaction mixtures were prepared under […]
# (§7) rich substrate formulation with 1 g L-1 mucin, pectin, and xylan (substrate control), (ii) 150 µL pooled fecal suspension (three individual pools with n = 3 donors each, 1:10 diluted in SHIME® saline) + 60 µL fiber-rich substrate, (iii) 300 µL pooled exoenzyme fraction (three individual pools with n = 3 donors each, 1:10 in SHIME® saline), and (iv) 150 µL bacterial colon model + 60 µL fiber-rich substrate. All incubations contained 500 µM of the respective test compound.
# (§8) At defined time points, samples were mixed 1:1 (v/v) with ethanol, vortexed, and centrifuged […]
# (§9) (18,000 × g, 3 min). The resulting supernatant was combined 1:1 (v/v) with acetonitrile (100 %) […]
# (§10) The clarified supernatant was diluted with the mobile phase prior to injection. Non-polar and UV-absorbing compounds were analyzed on a Knauer Eurospher II C8 column (250 × 4 mm, 5 µm) with a C8 guard cartridge using an AZURA CT 2 system (Knauer, Berlin, Germany) equipped with a SpectraSystem SCM1000 degasser, P4000 pump, AS3000 autosampler, and UVD 2.1L detector. Paracetamol was analyzed on a Shodex Asahipak NH2P-50 3E column (Showa Denko, Japan) with a corresponding guard column and an RI- […]
# (§11) Chromatographic parameters, including mobile-phase composition, column temperature, flow rate, and detection wavelength are summarized in Suppl. Tab. S1. Quantification of parent compounds and metabolites was performed by […]
# [2] = tested on: pooled human fecal slurry; experiment: Xenobiotic depletion in pooled human fecal slurry, anaerobic incubation
# Protocol: as §2, §3, §4, §5, §6, §7, §8, §9, §10
# (§12) Chromatographic parameters, including mobile-phase composition, column temperature, flow rate, and detection wavelength are summarized in Suppl. Tab. S1. Quantification of parent compounds and metabolites was performed by external calibration using analytical reference standards.
# (§13) Table S2: Chromatographic conditions for HPLC-based detection of selected xenobiotics and their microbial transformation products. Analytes were separated on either C8 or amino columns under compound-specific conditions. Mobile phases consisted of acetonitrile (ACN) with acidic modifiers and were operated under isocratic flow. Detection wavelengths correspond to the absorbance maxima […]
# (§14) Column Mobile phase Tempera Flow rate UV detection […]
# [3] = Xenobiotic depletion in buffer (SHIME saline with fiber-rich substrate, substrate control)
# Protocol: as §2, §4, §5
# as §7, with “reduction), and nitrendipine (nitro group reduction). Reaction mixtures were prepared under anaerobic conditions (37°C, 24 h) as follows: (i) 210 µL SHIME® saline containing the fiber-rich substrate formulation” for “rich substrate formulation”
# as §8, §9
# The clarified supernatant was diluted with the mobile phase prior to injection. Non-polar and UV-absorbing compounds were analyzed on a Knauer Eurospher II C8 column (250 × 4 mm, 5 µm) with a C8 guard cartridge using an AZURA CT 2 system (Knauer, Berlin, Germany) equipped with a SpectraSystem SCM1000 degasser, P4000 pump, AS3000 autosampler, and UVD 2.1L detector. Paracetamol was analyzed on a Shodex Asahipak NH2P-50 3E column (Showa Denko, Japan) with a corresponding guard column and an RI-101 detector (Ercatech AG, Germany). Chromatographic parameters, including mobile-phase composition, column temperature, flow rate, and detection wavelength are summarized in Suppl. Tab. […]. Quantification of parent compounds and metabolites was performed by external calibration using analytical reference standards.
# as §13, §14
# To confirm the identity of selected biotransformation products, representative samples were analyzed by liquid chromatography-mass spectrometry (LC-MS). Samples were mixed 1:1 (v/v) with ethanol and centrifuged (18,000 × g, 5 min). From the resulting supernatant, 50 µL were diluted in 450 µL H₂O: ACN (70:30, v/v). Prior to analysis, samples were filtered through
# bacterial colon model = experiment: in vitro; conditions: for apparent first-order rate constant (k): 500 µM
# Protocol: (§15) Our model was based on the isolation of intact bacterial communities from human feces. Bacterial isolation was performed using a modified density gradient centrifugation protocol first described by Hevia et al. ([2015]). To detach bacteria adhering to particulate matter and embedded within fecal biofilms, 0.001% (w/v) cetyltrimethylammonium bromide (CTAB) was added to each diluted fecal sample 30 min prior to further processing (Macfarlane et al. [1997]). All steps involving open sample handling were conducted under strictly anaerobic conditions (79% N2, 19% CO2, 2% H2) within a vinyl anaerobic chamber (Coy Laboratory Products, Grass Lake, Michigan, USA). Samples from three donors were randomly pooled for each preparation to reduce variability among individuals. From each pooled and diluted fecal suspension, 15 mL were layered onto 3.5 mL of 55% (w/v) Nycodenz® (Serumwerk Bernburg AG, Bernburg, Germany) in anaerobic centrifuge tubes. The samples were then centrifuged at 4000 × g for 30 min at room temperature.
# (§16) To further purify the extracellular enzyme (exoenzyme) fraction, the supernatant was centrifuged at 18,000 × g for 3 min at 4 °C. The resulting preparation was then sterile-filtered three times through 0.22-µm syringe filters to ensure complete removal of remaining microbial cells. The sterile exoenzyme fraction was stored anaerobically at −70 °C until further use. The middle layer, which contained the gut bacteria, was collected and referred to as the bacterial colon model. The isolated microbiota was then diluted in sterile 50% (v/v) glycerol and stored at −70 °C under anaerobic conditions. Prior to use in experiments, the cryopreserved cells were washed three times with modified SHIME® saline (18,000 × g, 3 min, 4 °C) to remove any remaining Nycodenz®, glycerol, and particulate material. The final cell suspension was adjusted to an optical density at 600 nm (OD600) of 10, corresponding to approximately 1.43 × 10^10 cells mL^−1, as determined microscopically using a Neubauer counting chamber (Hager et al. [2025]). This microbial density was about 16% of the mean in vivo bacterial concentration in the human colon, estimated at 8.8 × 10^10 cells mL^−1 (assuming a fecal density of 1.04 g mL^−1 (Sender et al. [2016])).
# as §2
# (§17) To evaluate the metabolic capabilities of the human colon model presented here, a panel of structurally diverse xenobiotics was selected based on microbial biotransformation reactions reported in the literature (Fig. 7, Supplementary Fig. S2). […] Together, these reference substrates served as model compounds covering major gut microbial transformation chemistries, enabling a matrix-to-matrix performance evaluation of the colon model. All compounds were incubated anaerobically for 24 h with pooled human fecal slurry, the bacterial colon model, and the sterile-filtered fecal exoenzyme fraction, derived from three independent donor pools (n = 3 each).
# [4] = Xenobiotic depletion in the sterile-filtered fecal exoenzyme fraction; format: in vitro ADME, human; conditions: human, sterile-filtered fecal exoenzyme fraction (cell-free), 500 µM test compound, anaerobic, 37°C, 24 h, three donor pools, read-out: half-life (t1/2) (converted)
# Protocol: as §1, §2, §3, §4, §5, §6, §7, §8, §9, §10, §11
# in vitro = conditions: human
# Protocol: as §2, §3, §4, §5, §6, §7, §8, §9, §10, §12, §13, §14
# [5] = Xenobiotic depletion in the bacterial colon model, anaerobic incubation; conditions: human
# Protocol: as §15, §16, §2, §17
# [6] = 500 µM test compound, 37°C, three donor pools
# [7] = fecal slurry, 500 µM test compound, anaerobic, 37°C, 24 h, three donor pools
# [8] = buffer, 500 µM test compound, anaerobic, 37°C, 24 h
Structure (SMILES),"apparent first-order rate constant (k) [1, 6] [h⁻¹]",conversion in the exoenzyme fraction (in words) [1],half-life at 500 µM [4] [h],half-life at 500 µM (in vitro) [h],"apparent first-order rate constant (k) ([2]; human, 500 µM) [h⁻¹]",half-life at 500 µM ([3]; buffer) [h],half-life at 500 µM [5] [h],apparent first-order rate constant (k) (bacterial colon model; human) [h⁻¹],apparent first-order rate constant (k) ([3]; 500 µM) [h⁻¹],"half-life (t1/2) [1, 6] [min]",conversion in the exoenzyme fraction (in words) ([1]; listed as 4-acetoxyacetanilide),"conversion in fecal slurry (in words) ([2]; fecal slurry, anaerobic, 24 h)","apparent first-order rate constant (k) [2, 7] [h⁻¹]","half-life (t1/2) [2, 7] [min]","apparent first-order rate constant (k) [3, 8] [h⁻¹]","half-life (t1/2) [3, 8] [h]",conversion in the bacterial colon model (in words) (bacterial colon model),half-life (t1/2) (bacterial colon model; human) [min]
"CC(=O)Nc1ccc(OC(C)=O)cc1 [4-Acetoxyacetanilide, 4-acetoxyacetanilide]",13.46,clear hydrolytic activity,,,,,,,,3,relevant activity,rapidly degraded,15.38,3,0.02,> 24,rapidly degraded,1.8
"O=C(N[C@H](CO)[C@H](O)c1ccc([N+](=O)[O-])cc1)C(Cl)Cl [Chloramphenicol, chloramphenicol]",0.003,,> 24,1.54,0.45,> 24,1.47,0.47,,,,,,,,,,
"O=C(O)c1cc(/N=N/c2ccc(S(=O)(=O)Nc3ccccn3)cc2)ccc1O [Sulfasalazine, sulfasalazine]",0.003,,> 24,,0.93,> 24,,1.20,0.002,,,,,,,,,

# Further lines, with some results ahead:
"apparent first-order rate constant (k) [1, 6] [h⁻¹]",conversion in the exoenzyme fraction (in words) [1],half-life at 500 µM [4] [h],half-life at 500 µM (in vitro) [h],"apparent first-order rate constant (k) ([2]; human, 500 µM) [h⁻¹]",half-life at 500 µM ([3]; buffer) [h],half-life at 500 µM [5] [h],apparent first-order rate constant (k) (bacterial colon model; human) [h⁻¹],apparent first-order rate constant (k) ([3]; 500 µM) [h⁻¹],Structure (SMILES),"half-life (t1/2) [1, 6] [min]",conversion in the exoenzyme fraction (in words) ([1]; listed as 4-acetoxyacetanilide),"conversion in fecal slurry (in words) ([2]; fecal slurry, anaerobic, 24 h)","apparent first-order rate constant (k) [2, 7] [h⁻¹]","half-life (t1/2) [2, 7] [min]","apparent first-order rate constant (k) [3, 8] [h⁻¹]","half-life (t1/2) [3, 8] [h]",conversion in the bacterial colon model (in words) (bacterial colon model),half-life (t1/2) (bacterial colon model; human) [min]
0.002,no relevant conversion,> 24,1.58,0.44,> 24,0.75,0.92,0.0009,"CCOC(=O)C1=C(C)NC(C)=C(C(=O)OC)C1c1cccc([N+](=O)[O-])c1 (centres unmarked) [Nitrendipine, nitrendipine]",,,,,,,,,
0.16,,4.33,0.6,1.16,> 24,0.61,1.13,0.005,"CC(=O)OCC(=O)NCCCOc1cccc(CN2CCCCC2)c1 [Roxatidine-acetate, roxatidine-acetate]",,,,,,,,,
0.003,no meaningful conversion,> 24,5.78,0.12,> 24,3.47,0.20,0.0003,"CC1=C(CC(=O)O)c2cc(F)ccc2/C1=C\c1ccc([S+](C)[O-])cc1 (centres unmarked) [Sulindac, sulindac]",,,,,,,,,

# Reference: paper PMC13222238, “Development of a gut microbiota model for the analysis of bacterial modifications of xenobiotics” (Applied Microbiology and Biotechnology, 2026)
